Reference: ChEMBL document CHEMBL1129893 (Bioorg Med Chem Lett, 1997)
Calls of active or inactive are those of the source. The calls are words filed in the database; no cut-off is given here.

target: T1, Estrogen receptor (Homo sapiens, UniProt Q92731+P03372); test: Displacement of [3H]estradiol from estrogen receptor in MCF-7 cell lysate; Inactive; type: cell-free; conditions: not given

With COC(=O)c1ccc(-c2sc3ccccc3c2C(=O)c2ccc(OCCN3CCCCC3)cc2)cc1 the Relative binding affinity was “inactive”.
O=C(O)c1ccc2c(C(=O)c3ccc(OCCN4CCCCC4)cc3)c(-c3ccc(O)cc3)sc2c1 was tested, and the Relative binding affinity was “inactive”.

target: T1, Estrogen receptor; conditions: mcf-7
Description: Antagonist effect in breast tissue was assayed by inhibition of estrogen stimulated MCF-7 cell proliferation

C=Cc1ccc(-c2sc3cc(O)ccc3c2C(=O)c2ccc(OCCN3CCCCC3)cc2)cc1 and N#Cc1ccc(-c2sc3cc(O)ccc3c2C(=O)c2ccc(OCCN3CCCCC3)cc2)cc1 are within 1.5-fold of each other in IC50: 7 nM for the first, 8 nM for the second.

Compared with COC(=O)c1ccc(-c2sc3ccccc3c2C(=O)c2ccc(OCCN3CCCCC3)cc2)cc1, COC(=O)c1ccc(-c2sc3cc(O)ccc3c2C(=O)c2ccc(OCCN3CCCCC3)cc2)cc1 is 20-fold lower in IC50: 1000 nM for the first, 50 nM for the second.

Going from CN(C)C(=O)c1ccc(-c2sc3cc(O)ccc3c2C(=O)c2ccc(OCCN3CCCCC3)cc2)cc1 to CC(=O)c1ccc(-c2sc3cc(O)ccc3c2C(=O)c2ccc(OCCN3CCCCC3)cc2)cc1, the IC50 rises from 20 nM to 32 nM (1.6-fold).

Compared with CC(=O)c1ccc2c(C(=O)c3ccc(OCCN4CCCCC4)cc3)c(-c3ccc(O)cc3)sc2c1, NC(=O)c1ccc2c(C(=O)c3ccc(OCCN4CCCCC4)cc3)c(-c3ccc(O)cc3)sc2c1 is 17-fold higher in IC50: 60 nM for the first, 1000 nM for the second.

CCCCOC(=O)c1ccc2c(C(=O)c3ccc(OCCN4CCCCC4)cc3)c(-c3ccc(O)cc3)sc2c1 and COC(=O)c1ccc2c(C(=O)c3ccc(OCCN4CCCCC4)cc3)c(-c3ccc(O)cc3)sc2c1 are within 1.5-fold of each other in IC50: 40 nM for the first, 30 nM for the second.

CCOP(=O)(OCC)c1ccc(-c2sc3cc(O)ccc3c2C(=O)c2ccc(OCCN3CCCCC3)cc2)cc1 and CCOP(=O)(OCC)c1ccc2c(C(=O)c3ccc(OCCN4CCCCC4)cc3)c(-c3ccc(O)cc3)sc2c1 are within 1.5-fold of each other in IC50: 210 nM for the first, 200 nM for the second.

First: O=C(O)c1ccc(-c2sc3cc(O)ccc3c2C(=O)c2ccc(OCCN3CCCCC3)cc2)cc1
Second: NC(=O)c1ccc(-c2sc3cc(O)ccc3c2C(=O)c2ccc(OCCN3CCCCC3)cc2)cc1
The IC50 of the first is 1.6-fold higher: 325 nM for the first, 200 nM for the second.

Compared with C#Cc1ccc(-c2sc3cc(O)ccc3c2C(=O)c2ccc(OCCN3CCCCC3)cc2)cc1, C#Cc1ccc2c(C(=O)c3ccc(OCCN4CCCCC4)cc3)c(-c3ccc(O)cc3)sc2c1 is 25-fold higher in IC50: 0.8 nM for the first, 20 nM for the second.

CC(C)COC(=O)c1ccc2c(C(=O)c3ccc(OCCN4CCCCC4)cc3)c(-c3ccc(O)cc3)sc2c1 and CCOC(=O)c1ccc(-c2sc3cc(O)ccc3c2C(=O)c2ccc(OCCN3CCCCC3)cc2)cc1 are within 1.5-fold of each other in IC50: 40 nM for the first, 50 nM for the second.

COC(=O)c1ccc(-c2sc3cc(C(=O)OC)ccc3c2C(=O)c2ccc(OCCN3CCCCC3)cc2)cc1 and COC(=O)c1ccc2c(C(=O)c3ccc(OCCN4CCCCC4)cc3)c(-c3ccccc3)sc2c1 are the same in IC50: 1000 nM for the first, 1000 nM for the second.

CNC(=O)c1ccc(-c2sc3cc(O)ccc3c2C(=O)c2ccc(OCCN3CCCCC3)cc2)cc1 showed an IC50 of 40 nM.
